# Measurements taken from patent US20160151505A1 (KONINKLIJKE PHILIPS N.V., priority 2011, published 2016).
# Where two headings read alike, the source gives them in different places. Marks after values point to notes of the source that are not given here.
# Key:
# [1] = Hydrolytic stability tests of tetrazines; format: physicochemical
# Description: This solution was filtered and, the decrease of the absorption band at 525 nm was monitored using UV spectroscopy.
# [2] = Reactivity of tetrazines towards trans-cyclooct-4-ene-1-ol (competition experiment); conditions: reference tetrazine 5; reaction with trans-cyclooct-4-ene-1-ol (axial isomer)
# Experimental: A competition experiment was performed to determine the reactivity ratio of a specific tetrazine and 3-(5-acetamido-2-pyridyl)-6-(2-pyridyl)-1,2,4,5-tetrazine (that was chosen as the reference tetrazine), in the inverse-electron demand Diels-Alder reaction with trans-cyclooct-4-ene-1-ol (“minor” isomer with OH in axial position, see: Whitham et al. J. Chem. Soc. (C), 1971, 883-896)).
# To acetonitrile (0.100 mL) was added 5 μL of a solution of the specific tetrazine in DMSO (25 mM) and 5 μL of a solution of the reference tetrazine in DMSO (25 mM). This mixture was diluted with water (0.9 mL), and the absolute amounts of both tetrazines were determined by HPLC-MS/PDA analysis. Subsequently, a solution of trans-cyclooct-4-ene-1-ol (axial isomer) in DMSO (25 μL 2.5 mM) was slowly added, and the mixture was stirred for 5 min. Again, the absolute amounts of both tetrazines were determined by HPLC-MS/PDA analysis, and conversions for both tetrazines was calculated. From these conversions, the reactivity ratio (R=k2,TCO/k2,Ref) of both tetrazines was calculated using the mathematical procedure from Ingold and Shaw (J. Chem. Soc., 1927, 2918-2926).
# [3] = Stability of trans-cyclooctene derivatives in PBS; conditions: PBS buffer
# Experimental: (§1) 10 μL of a solution of the specific trans-cyclooctene derivative in dioxane (25 mM) was diluted with PBS buffer (3 mL), and this solution was stored at 20° C. in the dark.
# (§2) The fate of the TCO compound was monitored by HPLC-MS analysis, and an estimation of the half-life time was made based on the release of the model prodrug.
# [4] = Second-order rate constant determination of trans-cyclooctene derivatives with tetrazine; conditions: UV-visible spectroscopy in acetonitrile at 20° C.
# Experimental: The kinetics of the inverse-electron demand Diels-Alder reaction of a trans-cyclooctene derivative with 3-(5-acetamido-2-pyridyl)-6-(2-pyridyl)-1,2,4,5-tetrazine, performed in acetonitrile at 20° C., was determined using UV-visible spectroscopy. A cuvette was filled with acetonitrile (3 mL) and equilibrated at 20° C. 3-(5-Acetamido-2-pyridyl)-6-(2-pyridyl)-1,2,4,5-tetrazine (2.50×10^−7 mol) was added, followed by the trans-cyclooctene derivative (2.50×10^−7 mol). The decay of the absorption at λ=540 nm was monitored, and from this curve the second-order rate constant, k2, was determined assuming second order rate kinetics.
# [5] = test system: A431 squamous carcinoma cells; assay: Cell proliferation assay (MTT); format: cell-based; conditions: Homo sapiens
# [6] = Reactivity of trans-cyclooctene derivatives: competition experiment; conditions: reference trans-cyclooct-4-ene-1-ol (axial isomer)
# Experimental: A competition experiment was performed to determine the reactivity ratio of a specific trans-cyclooctene derivative and trans-cyclooct-4-ene-1-ol (axial isomer) (that was chosen as the reference), in the inverse-electron demand Diels-Alder reaction with bis(2-pyridyl)-1,2,4,5-tetrazine.
# This mixture was diluted with water (0.45 mL). Subsequently, a solution of bis(2-pyridyl)-1,2,4,5-tetrazine (6.25×10^−8 mol) in a mixture of acetonitrile (0.05 mL) and water (0.45 mL) was slowly added while stirring vigorously. After addition, the mixture was stirred for an additional 5 min. The conversion of both trans-cyclooctene derivatives was determined by HPLC-MS/PDA analysis, and from these conversions, the reactivity ratio (R=k2,TCO/k2,Ref) of the specific trans-cyclooctene derivative was calculated using the mathematical procedure from Ingold and Shaw (J. Chem. Soc., 1927, 2918-2926).
# [7] = Reactivity of tetrazines towards trans-cyclooct-4-ene-1-ol (competition experiment); conditions: values marked *: 50:50 mixture of PBS and acetonitrile; reference tetrazine 5
# [8] = Activation of doxorubicin prodrugs (release of doxorubicin); conditions: after 1 hr at 20° C.
# Experimental: […] Next, […](E)-cyclooctene-doxorubicin conjugate (64, 2.67×10^−5 g; 2.50×10^−8 mol) was added.
# […] Next, (E)-cyclooctene-doxorubicin conjugate (68, 2.67×10^−5 g; 2.50×10^−8 mol) was added.
# [9] = physchem; conditions: buffer
# Experimental: as §1, §2
# [10] = values marked *: 50:50 mixture of PBS and acetonitrile
# [11] = stability in PBS at 20° C. t1/2, PBS, 20° C.
# [12] = stability in PBS t1/2, PBS, 37° C.
smiles,measurement,setting,value
Nc1ccc(-c2nnc(-c3ccccn3)nn2)nc1,half-life at 83 µM,"[1]; PBS buffer, PBS, 20° C.",340 h
same,"Reactivity ratio (R = k2,TZ/k2,Ref)",[2],0.4
O=C1CCCC(=O)N1c1ccc(-c2nnc(-c3ccccn3)nn2)nc1,half-life at 83 µM,"[1]; PBS buffer, PBS, 20° C.",24 h
same,"Reactivity ratio (R = k2,TZ/k2,Ref)",[2],1.6
c1cc(-c2nnc(-c3ccsc3)nn2)cs1,half-life at 83 µM,[1]; [10],> 300 h
Fc1ccc(-c2nnc(-c3ccc(F)cn3)nn2)nc1,half-life at 83 µM,"[1]; PBS buffer, PBS, 20° C.",115 h
FC(F)(F)c1ccc(-c2nnc(-c3ccc(C(F)(F)F)cn3)nn2)nc1,half-life at 83 µM,[1]; [10],3.6 h
CCCC(=O)Nc1ccc(-c2nnc(-c3ccc(C(F)(F)F)cn3)nn2)nc1,half-life at 83 µM,[1]; [10],35 h
CCCC(=O)Nc1ccc(-c2nnc(-c3ncccn3)nn2)nc1,half-life at 83 µM,"[1]; PBS buffer, PBS, 20° C.",3.2 h
same,"Reactivity ratio (R = k2,TZ/k2,Ref)",[2],2.7
CCCC(=O)Nc1ccc(-c2nnc(-c3ccc(F)cn3)nn2)nc1,half-life at 83 µM,"[1]; PBS buffer, PBS, 20° C.",117 h
same,"Reactivity ratio (R = k2,TZ/k2,Ref)",[2],0.95
c1cnc(-c2nnc(-c3cnccn3)nn2)cn1,half-life at 83 µM,"[1]; PBS buffer, PBS, 20° C.",0.68 h
same,"Reactivity ratio (R = k2,TZ/k2,Ref)",[2],1.5
c1cncc(-c2nnc(-c3cccnc3)nn2)c1,half-life at 83 µM,"[1]; PBS buffer, PBS, 20° C.",> 150 h
same,"Reactivity ratio (R = k2,TZ/k2,Ref)",[2],0.19
c1cc(-c2nnc(-c3ccncc3)nn2)ccn1,half-life at 83 µM,"[1]; PBS buffer, PBS, 20° C.",2.4 h
same,"Reactivity ratio (R = k2,TZ/k2,Ref)",[2],0.83
c1csc(-c2nnc(-c3cccs3)nn2)c1,half-life at 83 µM,[1]; [10],> 300 h
NCc1ccc(-c2nncnn2)cc1,half-life at 83 µM,"[1]; PBS buffer, PBS, 20° C.",183 h
same,"Reactivity ratio (R = k2,TZ/k2,Ref)",[2],0.77
Nc1ccc(-c2nnc(-c3ccccc3)nn2)cc1,half-life at 83 µM,[1]; [10],> 300 h
Nc1cccc(-c2nnc(-c3ccccc3)nn2)c1,half-life at 83 µM,[1]; [10],> 300 h
CCCNC(=O)c1ccc(-c2nnc(-c3ccccn3)nn2)nc1,half-life at 83 µM,"[1]; PBS buffer, PBS, 20° C.",4 h
c1ccc(-c2nnc(-c3ccccc3)nn2)cc1,half-life at 83 µM,[1]; [10],> 300 h
c1ccc(-c2nncnn2)nc1,half-life at 83 µM,"[1]; PBS buffer, PBS, 20° C.",2.7 h
CCCC(=O)Nc1ccc(-c2nncnn2)nc1,half-life at 83 µM,"[1]; PBS buffer, PBS, 20° C.",10.3 h
same,"Reactivity ratio (R = k2,TZ/k2,Ref)",[2],2.8
CCCC(=O)Nc1ccc(-c2nnc(C)nn2)nc1,half-life at 83 µM,"[1]; PBS buffer, PBS, 20° C.",300 h
same,"Reactivity ratio (R = k2,TZ/k2,Ref)",[2],0.18
CCCNC(=O)c1ccc(-c2nnc(-c3ncccn3)nn2)nc1,half-life at 83 µM,"[1]; PBS buffer, PBS, 20° C.",0.42 h
same,"Reactivity ratio (R = k2,TZ/k2,Ref)",[2],2
c1c[nH]c(-c2nnc(-c3ccc[nH]3)nn2)c1,half-life at 83 µM,[1]; [10],> 300 h
c1c[nH]c(-c2nnc(-c3ncc[nH]3)nn2)n1,"Reactivity ratio (R = k2,TZ/k2,Ref)",[2],1.2
"N[C@H]1CC/C=C/CC[C@H]1NC(=O)Oc1ccccc1 (relative stereo) [compound 36, cis-(E)-phenyl(8-aminocyclooct-4-en-1-yl)carbamate]",half-life at 83 µM,[3],27 h
same,rate contant* k2,[4],240 M⁻¹ s⁻¹
"NC1CC/C=C/CCC1NC(=O)Nc1ccccc1 (stereo not drawn) [47 major, cis phenyl((E)-8-aminocyclooct-4-en-1-yl)urea]",half-life at 83 µM,[3],> 480 h
"COc1cccc2c1C(=O)c1c(O)c3c(c(O)c1C2=O)C[C@@](O)(C(=O)CO)C[C@@H]3O[C@H]1C[C@H](N)[C@H](O)[C@H](C)O1 [Dox, Doxorubicin, reference compound]",IC50,"[5]; A-431, A431 cell line, 6 h incubation at 37° C. followed by medium replacement, read-out: IC50",38 ± 3 nM
"OC1CC/C=C/CCC1 (stereo not drawn) [axial isomer, trans-cyclooct-4-ene-1-ol, reference compound]",half-life at 83 µM,[3],> 72 h
same,"reactivity ratio** (R = k2,TCO/k2,Ref)",[6],1
"c1ccc(-c2nnc(-c3ccccn3)nn2)nc1 [compound 2, 3,6-bis(2-pyridyl)-1,2,4,5-tetrazine]",half-life at 83 µM,"[1]; PBS buffer, PBS, 20° C.",44 h
"CC(=O)Nc1ccc(-c2nnc(-c3ccccn3)nn2)nc1 [compound 5, 3-(5-acetamido-2-pyridyl)-6-(2-pyridyl)-1,2,4,5-tetrazine]",half-life at 83 µM,"[1]; PBS buffer, PBS, 20° C.",80 h
same,"Reactivity ratio (R = k2,TZ/k2,Ref)",[2],1
"Cc1nnc(-c2ccccn2)nn1 [compound 7, 3-(2-pyridyl)-6-methyl-1,2,4,5-tetrazine]",half-life at 83 µM,"[1]; PBS buffer, PBS, 20° C.",230 h
same,"Reactivity ratio (R = k2,TZ/k2,Ref)",[2],0.25
"Nc1ccccc1-c1nnc(-c2ccccc2N)nn1 [compound 9, 3,6-bis(2-aminophenyl)-1,2,4,5-tetrazine]",half-life at 83 µM,[1]; [10],> 300 h
same,"Reactivity ratio (R = k2,TZ/k2,Ref)",[7],<0 .01*
"Oc1ccc(-c2nnc(-c3ccc(O)cc3)nn2)cc1 [compound 11, 3,6-bis(4-hydroxyphenyl)-1,2,4,5-tetrazine]",half-life at 83 µM,[1]; [10],> 300 h
"Nc1ccc(-c2nnc(-c3ccc(N)cc3)nn2)cc1 [compound 13, 3,6-bis(4-aminophenyl)-1,2,4,5-tetrazine]",half-life at 83 µM,[1]; [10],> 300 h
"NCc1nnc(CN)nn1 [compound 20, 3,6-bis(aminomethyl)-1,2,4,5-tetrazine]",half-life at 83 µM,"[1]; PBS buffer, PBS, 20° C.",16 h
"COc1cc(COC(=O)NC2CC/C=C/CCC2N)cc(OC)c1OC (stereo not drawn) [compound 37, cis-(E)-3,4,5-trimethoxybenzyl(8-aminocyclooct-4-en-1-yl)carbamate]",half-life at 83 µM,[3],> 240 h
same,rate contant* k2,[4],300 M⁻¹ s⁻¹
Cc1ccccc1OC(=O)NC1CC/C=C/CCC1N (stereo not drawn) [compound 39],half-life at 83 µM,[3],192 h
COc1ccccc1OC(=O)NC1CC/C=C/CCC1N (stereo not drawn) [compound 41],half-life at 83 µM,[3],21 h
Cc1cccc(C)c1OC(=O)NC1CC/C=C/CCC1N (stereo not drawn) [compound 43],half-life at 83 µM,[3],> 480 h
CC(C)(C)c1ccccc1OC(=O)NC1CC/C=C/CCC1N (stereo not drawn) [compound 45],half-life at 83 µM,[3],> 480 h
"NC1/C=C/CCCCC1NC(=O)Oc1ccccc1 (stereo not drawn) [compound 56, trans phenyl(E)-2-aminocyclooct-3-en-1-yl carbamate]",half-life at 83 µM,[3],120 h
"O=C(Oc1ccccc1)N1C/C=C/CNCC1 [compound 61, (E)-phenyl 2,3,4,5-tetrahydro-1,4-diazocine-1(8H)-carboxylate]",half-life at 83 µM,[3],> 480 h
same,rate contant* k2,[4],47 M⁻¹ s⁻¹
"COc1cccc2c1C(=O)c1c(O)c3c(c(O)c1C2=O)C[C@@](O)(C(=O)CO)C[C@@H]3OC1CC(NC(=O)OCc2ccc(CC(=O)NC3CC/C=C/CCC3N)cc2)[C@H](O)C(C)O1 (stereo partly drawn) [compound 64, (E)-cyclooctene-doxorubicin conjugate]",IC50,"[5]; A-431, 6 h, A431 cell line, 6 h incubation at 37° C. followed by medium replacement",128 ± 17 nM
same,IC50,"[5]; A-431, 6 h, A431 cell line, in combination with tetrazine 29 (10 μM), 6 h incubation at 37° C. followed by medium replacement",49 ± 4 nM
same,IC50,"[5]; A-431, A431 cells, combination of the prodrug 64 and tetrazine 29",49 ± 4 nM
same,IC50,"[5]; A-431, A431 cells, prodrug alone",128 nM
same,doxorubicin released,"[8]; with 3,6-Diphenyl-1,2,4,5-tetrazine",48%
same,doxorubicin released,"[8]; with 3-(5-Acetamido-2-pyridyl)-6-(2-pyridyl)-1,2,4,5-tetrazine (5)",30%
same,doxorubicin released,"[8]; with 3-(5-Butyramido-2-pyridyl)-6-(2-pyrimidyl)-1,2,4,5-tetrazine",20%
same,doxorubicin released,"[8]; with 3-Methyl-6-(2-pyridyl)-1,2,4,5-tetrazine (7)",52%
same,doxorubicin released,"[8]; with 4-(1,2,4,5-Tetrazin-3-yl)phenylmethanamine",50%
same,half-life,[9]; [11],24 h
same,half-life,[9]; [12],3.6 h
"COc1cccc2c1C(=O)c1c(O)c3c(c(O)c1C2=O)C[C@@](O)(C(=O)CO)C[C@@H]3OC1CC(NC(=O)OCc2cc(C)c(CC(=O)NC3CC/C=C/CCC3N)c(C)c2)[C@H](O)C(C)O1 (stereo partly drawn) [compound 68, (E)-cyclooctene-doxorubicin conjugate]",half-life,[9]; [11],624 h
same,half-life,[9]; [12],149 h
